Measured values published in paper PMC6348381, “Discovery of an MLLT1/3 YEATS Domain Chemical Probe” (Angewandte Chemie (International Ed. in English), 2018).

Legend:
Format in all cases: binding
BAZ2A = target: T1, BAZ2A (Homo sapiens, UniProt Q9UIF9); assay: Thermal shift assay, BAZ2A
T1 construct: purchased in-house (SGC bromodomain thermal shift / AlphaScreen panel)
Method: (§1) II.VII Thermal Shift Assay[6]
(§2) Thermal melting experiments were carried out using an Mx3005p Real Time PCR machine (Stratagene). Proteins were buffered in 10 mM HEPES pH 7.5, 500 mM NaCl and assayed in a 96-well plate at a final concentration of 2 μM in 20 μL volume. Compounds were added at a final concentration of 50 μM. SYPRO Orange (Molecular Probes) was added as a fluorescence probe at a dilution of 1:1000. Excitation and emission filters for the SYPRO-Orange dye were set to 465 nm and 590 nm, respectively. The temperature was raised with a step of 3 °C per minute from 25 °C to 96 °C and fluorescence readings were taken at each interval. The unfolding curves were fitted using the Boltzmann equation to determine the middle point of the transition.

TAF1(1) = target: T2, TAF1(1) (Homo sapiens, UniProt P21675); assay: Thermal shift assay, TAF1(1)
T2 construct: TAF1(1); purchased in-house (SGC bromodomain thermal shift / AlphaScreen panel)
T2 sequence (P21675 1397-1505 limits assumed): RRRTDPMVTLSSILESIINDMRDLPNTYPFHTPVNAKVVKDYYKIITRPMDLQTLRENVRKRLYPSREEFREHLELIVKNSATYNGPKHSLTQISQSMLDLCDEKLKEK
Method: as §1, §2

PB1(1) = target: T3, PB1(1) (Homo sapiens, UniProt Q86U86); assay: Thermal shift assay, PB1(1)
T3 construct: PB1(1); purchased in-house (SGC bromodomain thermal shift / AlphaScreen panel)
Method: as §1, §2

BRD1 = target: T4, BRD1 (Homo sapiens, UniProt O95696); assay: Thermal shift assay, BRD1
T4 construct: purchased in-house (SGC bromodomain thermal shift / AlphaScreen panel)
T4 sequence (O95696 1-1058): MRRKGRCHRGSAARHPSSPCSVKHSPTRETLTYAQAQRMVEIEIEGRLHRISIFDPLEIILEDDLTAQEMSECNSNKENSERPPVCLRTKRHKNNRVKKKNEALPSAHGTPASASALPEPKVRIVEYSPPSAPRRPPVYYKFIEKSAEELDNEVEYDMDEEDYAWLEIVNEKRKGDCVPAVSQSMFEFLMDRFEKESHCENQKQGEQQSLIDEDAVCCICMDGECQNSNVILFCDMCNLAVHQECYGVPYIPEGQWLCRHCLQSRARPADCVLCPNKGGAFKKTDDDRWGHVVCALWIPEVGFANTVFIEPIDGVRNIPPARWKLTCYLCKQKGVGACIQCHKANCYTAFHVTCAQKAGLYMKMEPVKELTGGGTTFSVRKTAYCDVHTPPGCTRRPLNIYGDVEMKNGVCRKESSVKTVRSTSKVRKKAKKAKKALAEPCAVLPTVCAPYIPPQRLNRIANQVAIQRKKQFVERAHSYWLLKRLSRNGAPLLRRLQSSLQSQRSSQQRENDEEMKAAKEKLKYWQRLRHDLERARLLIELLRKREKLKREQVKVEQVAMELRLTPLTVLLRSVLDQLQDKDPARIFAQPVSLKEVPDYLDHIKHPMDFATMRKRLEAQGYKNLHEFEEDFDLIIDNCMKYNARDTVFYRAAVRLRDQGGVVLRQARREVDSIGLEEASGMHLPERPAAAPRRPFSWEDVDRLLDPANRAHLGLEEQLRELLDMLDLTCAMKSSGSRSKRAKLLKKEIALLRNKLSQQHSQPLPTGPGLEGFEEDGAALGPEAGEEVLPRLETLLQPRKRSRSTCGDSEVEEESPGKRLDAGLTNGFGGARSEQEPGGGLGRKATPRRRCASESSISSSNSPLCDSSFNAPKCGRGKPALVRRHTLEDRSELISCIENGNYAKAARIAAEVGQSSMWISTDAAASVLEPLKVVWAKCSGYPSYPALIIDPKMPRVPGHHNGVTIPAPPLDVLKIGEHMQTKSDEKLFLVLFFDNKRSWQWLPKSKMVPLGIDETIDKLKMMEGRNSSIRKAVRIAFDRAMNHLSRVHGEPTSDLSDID
Method: as §1, §2

SP140 = target: T5, SP140 (Homo sapiens, UniProt Q13342); assay: Thermal shift assay, SP140
T5 construct: purchased in-house (SGC bromodomain thermal shift / AlphaScreen panel)
Method: as §1, §2

BRD8 = target: T6, BRD8 (Homo sapiens, UniProt Q9H0E9); assay: Thermal shift assay, BRD8
T6 construct: purchased in-house (SGC bromodomain thermal shift / AlphaScreen panel)
Method: as §1, §2

BAZ1A = target: T7, BAZ1A (Homo sapiens, UniProt Q9NRL2); assay: Thermal shift assay, BAZ1A
T7 construct: purchased in-house (SGC bromodomain thermal shift / AlphaScreen panel)
Method: as §1, §2

T7 sequence (Q9NRL2 whole entry): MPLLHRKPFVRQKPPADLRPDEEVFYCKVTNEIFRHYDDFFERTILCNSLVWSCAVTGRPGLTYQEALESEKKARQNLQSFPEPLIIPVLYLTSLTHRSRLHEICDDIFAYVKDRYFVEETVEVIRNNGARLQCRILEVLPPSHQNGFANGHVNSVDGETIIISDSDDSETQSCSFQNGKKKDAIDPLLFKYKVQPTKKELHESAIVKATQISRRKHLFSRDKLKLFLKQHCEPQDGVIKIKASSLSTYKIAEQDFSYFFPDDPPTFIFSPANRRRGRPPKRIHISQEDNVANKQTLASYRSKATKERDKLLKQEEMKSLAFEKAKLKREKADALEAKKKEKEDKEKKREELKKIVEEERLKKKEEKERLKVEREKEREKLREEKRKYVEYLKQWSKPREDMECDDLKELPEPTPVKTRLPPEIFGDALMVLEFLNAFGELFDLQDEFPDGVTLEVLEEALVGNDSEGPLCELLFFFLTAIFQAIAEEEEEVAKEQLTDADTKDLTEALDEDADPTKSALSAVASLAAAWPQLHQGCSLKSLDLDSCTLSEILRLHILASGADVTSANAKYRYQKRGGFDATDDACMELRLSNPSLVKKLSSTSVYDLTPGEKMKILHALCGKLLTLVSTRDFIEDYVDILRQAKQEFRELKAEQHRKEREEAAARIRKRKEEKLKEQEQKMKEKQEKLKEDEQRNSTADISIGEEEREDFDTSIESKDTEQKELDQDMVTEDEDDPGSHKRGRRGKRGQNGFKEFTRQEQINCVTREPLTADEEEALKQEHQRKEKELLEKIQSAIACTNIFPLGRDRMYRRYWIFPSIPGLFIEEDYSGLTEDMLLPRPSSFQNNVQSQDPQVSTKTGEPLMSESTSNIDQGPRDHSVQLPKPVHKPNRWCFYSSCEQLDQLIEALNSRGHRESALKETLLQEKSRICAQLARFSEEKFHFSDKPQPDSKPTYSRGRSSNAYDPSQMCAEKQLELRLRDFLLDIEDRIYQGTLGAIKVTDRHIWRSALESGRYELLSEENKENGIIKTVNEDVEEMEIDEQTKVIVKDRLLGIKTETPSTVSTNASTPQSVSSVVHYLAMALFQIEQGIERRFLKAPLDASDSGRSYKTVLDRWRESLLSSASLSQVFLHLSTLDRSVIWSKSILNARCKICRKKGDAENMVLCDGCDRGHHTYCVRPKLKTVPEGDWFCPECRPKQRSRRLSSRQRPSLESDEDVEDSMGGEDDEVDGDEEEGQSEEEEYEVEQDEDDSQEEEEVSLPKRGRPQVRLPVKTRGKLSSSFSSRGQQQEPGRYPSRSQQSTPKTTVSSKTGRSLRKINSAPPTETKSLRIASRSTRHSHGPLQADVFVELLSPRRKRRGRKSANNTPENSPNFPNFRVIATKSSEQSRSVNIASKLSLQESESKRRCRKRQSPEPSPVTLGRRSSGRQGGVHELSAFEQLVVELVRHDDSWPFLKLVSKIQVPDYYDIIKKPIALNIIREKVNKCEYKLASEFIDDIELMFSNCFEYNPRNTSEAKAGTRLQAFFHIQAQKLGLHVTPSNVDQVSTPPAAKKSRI
T3 sequence (Q86U86 43-156 limits assumed): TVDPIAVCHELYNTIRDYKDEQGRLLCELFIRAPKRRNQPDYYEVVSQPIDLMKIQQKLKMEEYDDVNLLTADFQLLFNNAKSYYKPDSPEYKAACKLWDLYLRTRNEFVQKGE
T1 sequence (Q9UIF9 whole entry): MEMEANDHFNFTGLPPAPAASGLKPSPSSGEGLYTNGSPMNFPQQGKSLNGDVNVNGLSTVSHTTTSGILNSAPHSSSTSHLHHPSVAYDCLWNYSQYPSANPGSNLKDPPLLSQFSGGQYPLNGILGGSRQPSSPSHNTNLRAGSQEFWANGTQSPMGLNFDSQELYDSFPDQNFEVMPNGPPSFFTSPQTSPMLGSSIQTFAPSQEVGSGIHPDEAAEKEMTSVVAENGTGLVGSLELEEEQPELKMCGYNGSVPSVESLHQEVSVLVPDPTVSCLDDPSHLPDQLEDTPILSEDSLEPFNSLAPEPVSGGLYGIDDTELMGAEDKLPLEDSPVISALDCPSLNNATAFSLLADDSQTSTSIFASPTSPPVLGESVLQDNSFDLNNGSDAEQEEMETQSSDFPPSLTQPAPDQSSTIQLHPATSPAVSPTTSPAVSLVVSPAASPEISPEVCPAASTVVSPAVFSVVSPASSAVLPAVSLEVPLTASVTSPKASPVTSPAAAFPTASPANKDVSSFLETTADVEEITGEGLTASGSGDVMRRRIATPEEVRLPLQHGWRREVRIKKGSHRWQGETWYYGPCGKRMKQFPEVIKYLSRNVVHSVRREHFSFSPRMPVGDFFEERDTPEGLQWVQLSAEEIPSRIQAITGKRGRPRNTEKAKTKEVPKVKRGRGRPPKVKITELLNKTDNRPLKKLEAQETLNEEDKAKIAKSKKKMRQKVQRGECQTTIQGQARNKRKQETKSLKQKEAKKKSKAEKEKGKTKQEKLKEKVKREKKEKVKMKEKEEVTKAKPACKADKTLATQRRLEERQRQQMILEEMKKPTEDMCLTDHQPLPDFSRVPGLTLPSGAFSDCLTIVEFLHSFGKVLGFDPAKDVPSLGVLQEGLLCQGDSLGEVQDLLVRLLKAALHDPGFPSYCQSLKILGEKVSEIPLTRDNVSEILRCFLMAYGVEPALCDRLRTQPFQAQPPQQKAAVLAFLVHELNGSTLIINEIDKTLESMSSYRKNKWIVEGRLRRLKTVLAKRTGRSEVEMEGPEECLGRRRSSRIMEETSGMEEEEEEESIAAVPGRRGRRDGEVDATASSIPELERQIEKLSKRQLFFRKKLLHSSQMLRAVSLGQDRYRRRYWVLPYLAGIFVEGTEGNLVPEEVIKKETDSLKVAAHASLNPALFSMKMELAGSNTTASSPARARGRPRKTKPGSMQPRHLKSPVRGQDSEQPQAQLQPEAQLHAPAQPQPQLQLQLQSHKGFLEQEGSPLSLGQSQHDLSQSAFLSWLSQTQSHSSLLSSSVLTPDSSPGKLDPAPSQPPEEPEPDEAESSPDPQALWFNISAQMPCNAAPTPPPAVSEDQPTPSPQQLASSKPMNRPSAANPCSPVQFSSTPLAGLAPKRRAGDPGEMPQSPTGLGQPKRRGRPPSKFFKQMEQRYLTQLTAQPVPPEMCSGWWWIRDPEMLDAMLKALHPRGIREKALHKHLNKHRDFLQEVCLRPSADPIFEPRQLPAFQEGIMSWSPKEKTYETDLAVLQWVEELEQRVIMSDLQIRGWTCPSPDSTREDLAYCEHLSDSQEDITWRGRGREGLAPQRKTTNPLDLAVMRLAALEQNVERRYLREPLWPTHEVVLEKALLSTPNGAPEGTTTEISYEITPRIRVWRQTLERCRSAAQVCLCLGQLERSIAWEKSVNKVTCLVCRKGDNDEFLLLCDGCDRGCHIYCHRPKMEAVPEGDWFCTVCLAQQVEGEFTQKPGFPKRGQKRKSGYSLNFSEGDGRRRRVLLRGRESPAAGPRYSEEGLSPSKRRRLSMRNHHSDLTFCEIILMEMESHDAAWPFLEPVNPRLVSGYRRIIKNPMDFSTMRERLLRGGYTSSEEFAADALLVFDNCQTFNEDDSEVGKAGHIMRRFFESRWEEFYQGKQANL
T6 sequence (Q9H0E9 whole entry): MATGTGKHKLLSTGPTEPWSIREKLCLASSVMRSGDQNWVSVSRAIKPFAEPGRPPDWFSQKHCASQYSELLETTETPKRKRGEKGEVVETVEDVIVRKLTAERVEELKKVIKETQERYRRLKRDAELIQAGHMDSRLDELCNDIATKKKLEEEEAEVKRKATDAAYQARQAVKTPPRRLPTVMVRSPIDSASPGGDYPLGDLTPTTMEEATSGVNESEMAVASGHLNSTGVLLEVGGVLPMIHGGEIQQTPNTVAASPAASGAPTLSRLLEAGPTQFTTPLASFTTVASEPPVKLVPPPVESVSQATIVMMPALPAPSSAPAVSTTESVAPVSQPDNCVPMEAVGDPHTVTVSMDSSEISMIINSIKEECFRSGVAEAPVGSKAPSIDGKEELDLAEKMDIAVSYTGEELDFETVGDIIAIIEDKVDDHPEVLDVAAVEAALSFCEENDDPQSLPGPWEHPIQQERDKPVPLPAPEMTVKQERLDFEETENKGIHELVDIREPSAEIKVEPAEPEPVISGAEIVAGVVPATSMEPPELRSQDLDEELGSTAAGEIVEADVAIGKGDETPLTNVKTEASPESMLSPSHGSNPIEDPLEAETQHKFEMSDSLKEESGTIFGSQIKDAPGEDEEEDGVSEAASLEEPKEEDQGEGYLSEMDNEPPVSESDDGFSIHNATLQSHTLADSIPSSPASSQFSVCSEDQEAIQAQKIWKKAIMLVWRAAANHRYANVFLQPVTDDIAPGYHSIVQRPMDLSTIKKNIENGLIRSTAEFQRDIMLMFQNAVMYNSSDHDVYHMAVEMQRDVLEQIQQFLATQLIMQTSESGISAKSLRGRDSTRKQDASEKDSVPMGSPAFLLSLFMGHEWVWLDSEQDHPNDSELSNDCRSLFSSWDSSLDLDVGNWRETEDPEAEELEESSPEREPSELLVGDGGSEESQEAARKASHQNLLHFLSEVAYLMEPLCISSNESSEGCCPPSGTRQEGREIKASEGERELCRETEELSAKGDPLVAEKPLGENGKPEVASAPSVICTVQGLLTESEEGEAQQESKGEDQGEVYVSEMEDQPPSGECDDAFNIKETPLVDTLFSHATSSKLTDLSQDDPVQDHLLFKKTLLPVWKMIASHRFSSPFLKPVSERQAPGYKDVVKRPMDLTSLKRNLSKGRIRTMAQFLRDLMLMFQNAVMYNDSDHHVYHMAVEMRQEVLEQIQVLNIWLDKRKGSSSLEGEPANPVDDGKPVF

Thermal stabilisation, BAZ2A (BAZ2A; 10 µM compound concentration) | Thermal stabilisation, TAF1(1) (TAF1(1); 10 µM compound concentration) | Thermal stabilisation, PB1(1) (PB1(1); 10 µM compound concentration) | Thermal stabilisation, BRD1 (BRD1; 10 µM compound concentration) | Thermal stabilisation, SP140 (SP140; 10 µM compound concentration) | Thermal stabilisation, BRD8 (BRD8; 10 µM compound concentration) | Thermal stabilisation, BAZ1A (BAZ1A; 10 µM compound concentration) | Compound | Thermal stabilisation, BAZ2A (BAZ2A; 50 μM compound) | Thermal stabilisation, TAF1(1) (TAF1(1); 50 μM compound) | Thermal stabilisation, PB1(1) (PB1(1); 50 μM compound) | Thermal stabilisation, BRD1 (BRD1; 50 μM compound) | Thermal stabilisation, SP140 (SP140; 50 μM compound) | Thermal stabilisation, BRD8 (BRD8; 50 μM compound) | Thermal stabilisation, BAZ1A (BAZ1A; 50 μM compound)
 |  |  |  |  |  |  | COC(=O)c1ccc(C(=O)Nc2ccc3[nH]c(CN4CCCCC4)nc3c2)cc1 [Compound 1] | 0.81 | 0.005 | -1.095 | 0.2 | -0.15 | -1.225 | 1.085
 |  |  |  |  |  |  | C[C@H]1CCCN1Cc1nc2cc(NC(=O)c3ccc4c(cnn4C)c3)ccc2[nH]1 [Compound 92] | 0.25 | -0.15 | -1.745 | 0.215 | -0.915 | -0.715 | -0.26
1.125 | 0.805 | 0.98 | 2.055 | -1.045 | 0.74 | -0.77 | CCOC(=O)Nc1cc(-c2ccc(C)c(NS(C)(=O)=O)c2)nn2c(C)nnc12 [Bromosporine, reference compound] |  |  |  |  |  |  | 
